Test results as given in publication PMC9033141, “Beta and Gamma Amino Acid-Substituted Benzenesulfonamides as Inhibitors of Human Carbonic Anhydrases” (Pharmaceuticals, 2022).
Read-outs that look alike come from different tables or passages of the source.

Experiments:
CAXIV = target: T1, CAXIV (Homo sapiens, UniProt Q9ULX7); experiment: Fluorescent thermal shift assay (FTSA), CAXIV; format: binding; conditions: FTSA, pH 7.0, 37 °C; read-out: Observed Dissociation Constant (Kd_obs), CAXIV;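 note: recombinant human CA XIV from E. coli, ANS-based thermal shift: Kd_obs fitted from melting temperature versus ligand concentration, ΔGint from Kd_obs corrected for deprotonated sulfonamide and Zn-water fractions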
T1 construct: made in house; host or cells: E. coli

CAII = target: T2, CAII (Homo sapiens, UniProt P00918); experiment: biochemical; format: binding; conditions: FTSA, pH 7.0, 37 °C; read-out: Observed Dissociation Constant (Kd_obs), CAII
T2 construct: made in house; host or cells: E. coli
Protocol: (§1) Human CA isozymes were expressed in E. coli (CAI, II, III, IV, VA, VB, VII, XII, XIII, XIV) or mammalian cells (CAVI and CAIX), chromatographically purified following the published protocols [47], and stored at −80 °C. The protein concentration was determined by UV absorption at 280 nm using Beer–Lambert law.
(§2) The QIAGEN Rotor-Gene Q was used to carry out the experiments, with a blue channel used for excitation (365 nm) and detection (460 nm). FTSA in this case relies on an extrinsic probe, 8-anilino-1-naphthalenesulfonate (ANS), to detect the fluorescence increase during protein denaturation, from which protein melting temperature (Tm) can be determined. […] The observed affinity of ligands for CAs was determined by plotting the Tm as a function of ligand concentration and then fitting a curve as described previously [48]. […] Samples were heated from 25 °C to 99 °C at the speed of 1 °C/min.
The intrinsic thermodynamic parameters were calculated as described in [40]. The intrinsic reaction of inhibitor binding to CA is shown in Equation (1).
(§3) When calculating Kd_int values, these protein and ligand fractions from Equation (1) have to be accounted for (Equations (2) and (3)). The intrinsic dissociation constant is calculated by multiplying Kd_obs value by the corresponding fractions of protein and ligand (Equation (4)). (2) fRSO2NH^−=10^pH−pKa_RSO2NH2/1+10^pH−pKa_RSO2NH2 (3) fCAZnH2O=1−10^pH−pKa_CAZnH2O/1+10^pH−pKa_CAZnH2O (4) Kd_int=Kd_obs×fRSO2NH^−×fCAZnH2O (5) ΔGint0=RTlnKd_int
(§4) The intrinsic standard Gibbs energy changes upon binding were calculated using Equation (5). Here, R—universal ideal gas constant (8.3144 J/mol·K), T—absolute temperature (310.15 K).

CAXIII = CAXIII (Homo sapiens, UniProt Q8N1Q1); experiment: biochemical; conditions: Observed Dissociation Constant (Kd_obs), FTSA, pH 7.0, 37 °C;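 note: recombinant human CAXIII melting temperature tracked by ANS fluorescence in thermal shift assay, Tm fitted against ligand concentration, intrinsic value corrects Kd for deprotonated sulfonamide and Zn-bound water fractions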
CAXII = target: T3, CAXII (Homo sapiens, UniProt O43570); experiment: biochemical; format: binding; conditions: FTSA, pH 7.0, 37 °C; read-out: Observed Dissociation Constant (Kd_obs), CAXII
T3 construct: made in house; host or cells: E. coli

CAI = target: T4, CAI (Homo sapiens, UniProt P00915); experiment: biochemical; format: binding; conditions: FTSA, pH 7.0, 37 °C; read-out: Observed Dissociation Constant (Kd_obs), CAI
T4 construct: made in house; host or cells: E. coli

CAVI = target: T5, CAVI (Homo sapiens, UniProt P23280); experiment: Fluorescent thermal shift assay (FTSA), CAVI; format: binding; conditions: FTSA, pH 7.0, 37 °C; read-out: Observed Dissociation Constant (Kd_obs), CAVI;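 note: human CAVI expressed in mammalian cells, ANS fluorescence tracked during thermal unfolding, melting temperature fitted against ligand concentration, intrinsic values corrected for deprotonated sulfonamide and Zn-bound water fractions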
T5 construct: made in house

CAIX = target: T6, CAIX (Homo sapiens, UniProt Q16790); experiment: biochemical; format: binding; conditions: FTSA, pH 7.0, 37 °C
T6 construct: made in house

CAVII = target: T7, CAVII (Homo sapiens, UniProt P43166); experiment: Fluorescent thermal shift assay (FTSA), CAVII; format: binding; conditions: FTSA, pH 7.0, 37 °C
T7 construct: made in house; host or cells: E. coli
Protocol: as §1, §2
(§5) The intrinsic thermodynamic parameters were calculated as described in [40]. The intrinsic reaction of inhibitor binding to CA is shown in Equation (1). […] It is known that CA proteins bind sulfonamides only when water molecules are coordinated to the Zn(II) ion, and sulfonamides only bind to CA proteins when their amino group is deprotonated (confirmed by neutron crystallography [53, 54, 55]):(1) CA Zn^II−H2O+RSO2NH^−⇄ CA Zn^II−NH SO2R+H2O
as §3, §4

CAIV = target: T8, CAIV (Homo sapiens, UniProt P22748); experiment: Fluorescent thermal shift assay (FTSA), CAIV; format: binding; conditions: FTSA, pH 7.0, 37 °C; read-out: Observed Dissociation Constant (Kd_obs), CAIV;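 note: recombinant human enzyme, thermal denaturation followed by ANS fluorescence, melting temperature versus ligand concentration fitted for Kd_obs, intrinsic value corrected for deprotonated sulfonamide and Zn-bound water fractions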
T8 construct: made in house; host or cells: E. coli
Protocol: as §1, §2, §5, §3, §4

CAVA = target: T9, CAVA (Homo sapiens, UniProt P35218); experiment: Fluorescent thermal shift assay (FTSA), CAVA; format: binding; conditions: FTSA, pH 7.0, 37 °C; read-out: Observed Dissociation Constant (Kd_obs), CAVA
T9 construct: made in house; host or cells: E. coli
Protocol: as §1, §2, §5, §3, §4

CAIII = target: T10, CAIII (Homo sapiens, UniProt P07451); experiment: Fluorescent thermal shift assay (FTSA), CAIII; format: binding; conditions: FTSA, pH 7.0, 37 °C; read-out: Observed Dissociation Constant (Kd_obs), CAIII
T10 construct: made in house; host or cells: E. coli
Protocol: as §1, §2, §5, §3, §4

CAVB = target: T11, CAVB (Homo sapiens, UniProt Q9Y2D0); experiment: Fluorescent thermal shift assay (FTSA), CAVB; format: binding; conditions: FTSA, pH 7.0, 37 °C; read-out: Observed Dissociation Constant (Kd_obs), CAVB
T11 construct: made in house; host or cells: E. coli
Protocol: as §1, §2, §5, §3, §4

[1] = read-out: Observed Dissociation Constant (Kd_obs), CAIX
[2] = read-out: Observed Dissociation Constant (Kd_obs), CAVII
[3] = Observed Dissociation Constant (Kd_obs), CAIX
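Throughout, for Observed Dissociation Constant (Kd obs), CAXII: recombinant CAXII made in E. coli, ANS-fluorescence thermal shift with affinity fitted from Tm versus ligand concentration, intrinsic energy from Kd_obs corrected for deprotonated sulfonamide and Zn-water fractions.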

T3 sequence (O43570 25-354): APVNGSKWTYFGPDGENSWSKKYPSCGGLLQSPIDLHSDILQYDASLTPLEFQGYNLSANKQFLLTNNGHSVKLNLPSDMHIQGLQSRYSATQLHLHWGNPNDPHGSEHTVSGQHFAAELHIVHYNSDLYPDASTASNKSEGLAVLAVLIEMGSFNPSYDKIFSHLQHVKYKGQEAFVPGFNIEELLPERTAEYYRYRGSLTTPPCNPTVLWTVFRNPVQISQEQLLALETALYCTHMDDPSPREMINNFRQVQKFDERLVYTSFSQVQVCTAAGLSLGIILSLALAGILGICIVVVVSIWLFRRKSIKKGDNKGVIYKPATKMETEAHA
CAXIII, sequence (Q8N1Q1 whole entry): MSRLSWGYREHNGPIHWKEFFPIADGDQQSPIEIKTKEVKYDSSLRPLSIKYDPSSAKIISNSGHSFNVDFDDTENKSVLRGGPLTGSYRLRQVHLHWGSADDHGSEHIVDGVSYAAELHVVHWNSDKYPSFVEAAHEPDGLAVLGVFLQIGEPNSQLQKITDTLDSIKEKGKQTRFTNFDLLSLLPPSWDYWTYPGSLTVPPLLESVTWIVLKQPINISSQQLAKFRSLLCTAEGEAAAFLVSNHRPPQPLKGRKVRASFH
T8 sequence (P22748 19-312): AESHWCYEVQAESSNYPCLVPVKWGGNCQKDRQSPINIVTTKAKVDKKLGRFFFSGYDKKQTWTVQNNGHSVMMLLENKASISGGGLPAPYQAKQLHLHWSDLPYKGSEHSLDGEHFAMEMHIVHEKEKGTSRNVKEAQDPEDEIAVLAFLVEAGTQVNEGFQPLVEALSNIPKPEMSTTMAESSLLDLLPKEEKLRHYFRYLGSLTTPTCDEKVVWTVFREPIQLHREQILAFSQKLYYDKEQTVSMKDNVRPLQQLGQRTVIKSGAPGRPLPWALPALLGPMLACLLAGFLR
T7 sequence (P43166 whole entry): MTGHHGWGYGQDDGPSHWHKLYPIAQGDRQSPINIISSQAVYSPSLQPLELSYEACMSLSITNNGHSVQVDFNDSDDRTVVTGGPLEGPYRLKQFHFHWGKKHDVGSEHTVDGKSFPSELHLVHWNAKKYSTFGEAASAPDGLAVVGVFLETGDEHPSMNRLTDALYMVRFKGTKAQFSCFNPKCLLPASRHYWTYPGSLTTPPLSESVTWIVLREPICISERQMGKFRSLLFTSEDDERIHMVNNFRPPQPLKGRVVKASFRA
T1 sequence (Q9ULX7 16-337): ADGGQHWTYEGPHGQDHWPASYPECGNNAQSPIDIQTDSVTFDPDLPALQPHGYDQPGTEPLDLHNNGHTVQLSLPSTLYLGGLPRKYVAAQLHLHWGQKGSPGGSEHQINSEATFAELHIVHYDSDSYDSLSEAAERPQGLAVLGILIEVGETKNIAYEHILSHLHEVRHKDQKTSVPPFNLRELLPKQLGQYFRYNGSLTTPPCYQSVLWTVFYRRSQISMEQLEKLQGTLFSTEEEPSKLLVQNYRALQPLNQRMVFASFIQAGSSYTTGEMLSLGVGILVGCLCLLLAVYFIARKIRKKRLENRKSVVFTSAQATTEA
T9 sequence (P35218 39-305): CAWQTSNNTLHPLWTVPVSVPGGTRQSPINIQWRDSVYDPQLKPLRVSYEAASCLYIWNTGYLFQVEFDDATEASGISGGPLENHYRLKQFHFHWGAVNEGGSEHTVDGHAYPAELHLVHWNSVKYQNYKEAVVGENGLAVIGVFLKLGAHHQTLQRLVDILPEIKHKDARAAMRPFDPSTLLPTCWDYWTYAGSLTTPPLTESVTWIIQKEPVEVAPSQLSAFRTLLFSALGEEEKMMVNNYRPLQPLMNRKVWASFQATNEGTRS
T11 sequence (Q9Y2D0 34-317): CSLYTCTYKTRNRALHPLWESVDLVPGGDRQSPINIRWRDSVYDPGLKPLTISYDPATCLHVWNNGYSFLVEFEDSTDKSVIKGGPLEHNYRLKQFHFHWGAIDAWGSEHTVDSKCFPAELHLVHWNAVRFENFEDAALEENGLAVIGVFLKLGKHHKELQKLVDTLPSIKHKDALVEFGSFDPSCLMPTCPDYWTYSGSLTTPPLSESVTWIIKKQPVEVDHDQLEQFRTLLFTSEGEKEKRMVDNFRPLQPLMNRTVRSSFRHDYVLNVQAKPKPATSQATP
T10 sequence (P07451 whole entry): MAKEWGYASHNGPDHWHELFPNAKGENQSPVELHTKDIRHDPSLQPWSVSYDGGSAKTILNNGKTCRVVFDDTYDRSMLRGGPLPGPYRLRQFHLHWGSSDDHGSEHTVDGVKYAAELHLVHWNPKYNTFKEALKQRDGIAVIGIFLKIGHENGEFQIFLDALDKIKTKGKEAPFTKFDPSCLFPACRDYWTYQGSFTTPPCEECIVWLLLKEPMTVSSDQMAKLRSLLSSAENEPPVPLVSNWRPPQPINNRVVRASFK
T5 sequence (P23280 21-290 limits assumed): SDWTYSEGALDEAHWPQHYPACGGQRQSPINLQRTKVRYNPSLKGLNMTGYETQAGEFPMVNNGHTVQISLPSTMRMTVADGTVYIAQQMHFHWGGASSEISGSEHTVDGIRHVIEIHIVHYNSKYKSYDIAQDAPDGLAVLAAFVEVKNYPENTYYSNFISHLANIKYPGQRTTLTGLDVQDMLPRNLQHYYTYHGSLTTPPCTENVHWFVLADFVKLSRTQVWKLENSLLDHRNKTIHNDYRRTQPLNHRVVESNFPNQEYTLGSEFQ
T4 sequence (P00915 whole entry): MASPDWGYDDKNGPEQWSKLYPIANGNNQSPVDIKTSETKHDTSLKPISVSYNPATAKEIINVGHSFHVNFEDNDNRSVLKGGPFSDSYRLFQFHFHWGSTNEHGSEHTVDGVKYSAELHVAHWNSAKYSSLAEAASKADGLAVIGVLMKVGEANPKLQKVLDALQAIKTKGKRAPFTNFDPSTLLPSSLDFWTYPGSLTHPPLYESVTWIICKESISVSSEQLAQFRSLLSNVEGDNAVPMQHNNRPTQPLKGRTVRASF

| SMILES | melting point [°C] | Kd (CAXIV) [nM] | Kd (CAII) [nM] | Kd (CAXIII) [nM] | Kd (CAXII) [nM] | Kd (CAI) [nM] | Kd (CAVI) [nM] | Kd (CAIX; [1]) [nM] | Kd (CAVII; [2]) [nM] | Kd (CAIV) [nM] | Kd (CAVA) [nM] | Kd (CAIII) [nM] | Kd (CAVB) [nM] | Kd (CAVII; Observed Dissociation Constant (Kd_obs), CAVII) [nM] | Kd (CAIX; [3]) [nM] |
| --- | --- | --- | --- | --- | --- | --- | --- | --- | --- | --- | --- | --- | --- | --- | --- |
| Cc1csc(N(CCC(=O)NN=Cc2ccccc2)c2ccc(S(N)(=O)=O)cc2)n1 [Compound 30, 4-((3-(2-Benzylidenehydrazineyl)-3-oxopropyl)(4-methylthiazol-2-yl)amino)benzenesulfonamide] | 170 to 171 | 6700 | 4000 | 8300 | 110000 | 3300 | 67000 | 290 | 100000 | 27000 | ≥ 200000 | ≥ 200000 | 11000 | – | – |
| Cc1ccc(C)n1NC(=O)CC(CNc1ccc(S(N)(=O)=O)cc1Cl)C(=O)Nn1c(C)ccc1C (stereo not drawn) [Compound 19b, 2-(((2-Chloro-4-sulfamoylphenyl)amino)methyl)-N^1,N^4-bis(2,5-dimethyl-1H-pyrrol-1-yl)succinamide] | 232 to 233 | 25 | 50 | 130 | 1300 | 290 | 5000 | 56 | 200 | 1800 | 20000 | ≥ 200000 | 1400 | – | – |
| CNC(=S)NNC(=O)CC(CNc1ccc(S(N)(=O)=O)cc1Cl)C(=O)NNC(=S)NC (stereo not drawn) [Compound 22b] | 212 to 213 | 130 | 400 | 1700 | 2200 | 3300 | 3300 | 100 | 670 | 2000 | 6700 | ≥ 200000 | ≥ 200000 | – | – |
| CNC(=S)NNC(=O)CC(CNc1ccc(S(N)(=O)=O)cc1)C(=O)NNC(=S)NC (stereo not drawn) [Compound 22a, 2,2′-(2-(((4-Sulfamoylphenyl)amino)methyl)succinyl)bis(N-methylhydrazine-1-carbothioamide)] | 192 to 193 | 3300 | 2500 | 33000 | 11000 | 50000 | 13000 | 330 | 10000 | 6700 | 33000 | ≥ 200000 | 25000 | – | – |
| Cc1cc(C)n(C(=O)CC(CNc2ccc(S(N)(=O)=O)cc2Cl)C(=O)n2nc(C)cc2C)n1 (stereo not drawn) [Compound 20, 3-Chloro-4-((4-(3,5-dimethyl-1H-pyrazol-1-yl)-2-(3,5-dimethyl-1H-pyrazole-1-carbonyl)-4-oxobutyl)amino)benzenesulfonamide] | 201 to 202 | 330 | 500 | 2900 | 13000 | 5000 | 20000 | 100 | 10000 | 2000 | 22000 | ≥ 200000 | 3300 | – | – |
| NS(=O)(=O)c1ccc(NCC(CC(=O)NN=Cc2ccc(C(=O)O)cc2)C(=O)NN=Cc2ccc(C(=O)O)cc2)c(Cl)c1 (stereo not drawn) [Compound 18b, 4,4′-(((2-(((2-Chloro-4-sulfamoylphenyl)amino)methyl)succinyl)bis(hydrazin-2-yl-1-ylidene))bis(methaneylylidene))dibenzoic acid] | 294 to 295 | 1000 | 1300 | 1800 | 13000 | 5000 | 20000 | 250 | 330 | 13000 | 6700 | ≥ 200000 | 6700 | – | – |
| CCOC(=O)c1sc(N(CCC(=O)NN=Cc2ccccc2)c2ccc(S(N)(=O)=O)cc2)nc1C [Compound 34, Ethyl 2-((3-(2-Benzylidenehydrazineyl)-3-oxopropyl)(4-sulfamoylphenyl)amino)-4-methylthiazole-5-carboxylate] | 195 to 196 | 1000 | 150 | 220 | 14000 | 670 | 10000 | 170 | 250 | 1000 | ≥ 200000 | ≥ 200000 | 120 | – | – |
| NS(=O)(=O)c1ccc(NCC(CC(=O)NN=Cc2ccc(O)cc2)C(=O)NN=Cc2ccc(O)cc2)c(Cl)c1 (stereo not drawn) [Compound 9b, 3-Chloro-4-((2-(2-(4-hydroxybenzylidene)hydrazine-1-carbonyl)-4-(2-(4-hydroxybenzylidene)hydrazineyl)-4-oxobutyl)amino)benzenesulfonamide] | 226 to 227 | 130 | 200 | 250 | 14000 | 670 | 670 | 100 | – | 1000 | 2900 | ≥ 200000 | 830 | 250 | – |
| NS(=O)(=O)c1ccc(NCC(CC(=O)NNC(=S)Nc2ccccc2)C(=O)NNC(=S)Nc2ccccc2)c(Cl)c1 (stereo not drawn) [Compound 23b, 2,2′-(2-(((2-Chloro-4-sulfamoylphenyl)amino)methyl)succinyl)bis(N-phenylhydrazine-1-carbothioamide)] | 158 to 159 | 50 | 50 | 400 | 50 | 67 | 1000 | 33 | 110 | 1000 | 20000 | 15000 | 1100 | – | – |
| NS(=O)(=O)c1ccc(NCC(CC(=O)NN=Cc2ccc([N+](=O)[O-])cc2)C(=O)NN=Cc2ccc([N+](=O)[O-])cc2)c(Cl)c1 (stereo not drawn) [Compound 17b, 3-Chloro-4-((2-(2-(4-nitrobenzylidene)hydrazine-1-carbonyl)-4-(2-(4-nitrobenzylidene)hydrazineyl)-4-oxobutyl)amino)benzenesulfonamide] | 220 to 221 | – | 570 | 1400 | 58000 | 2600 | – | – | – | – | – | – | – | – | 1400 |
| NS(=O)(=O)c1ccc(NCC(CC(=O)NN=Cc2ccc(F)cc2)C(=O)NN=Cc2ccc(F)cc2)c(Cl)c1 (stereo not drawn) [Compound 13b, 3-Chloro-4-((2-(2-(4-fluorobenzylidene)hydrazine-1-carbonyl)-4-(2-(4-fluorobenzylidene)hydrazineyl)-4-oxobutyl)amino)benzenesulfonamide] | 207 to 208 | – | 390 | 340 | 23000 | 2600 | – | – | – | – | – | – | – | – | 330 |
